Read-outs that look alike come from different tables or passages of the source.
Legend:
Format in all cases: cell-based
[1] = system: human diploid fibroblasts (HDF-3); experiment: G1-S progression assay (BrdU incorporation); conditions: read-out: G1/S Chkpt (IC50)
Description: This assay is designed to determine the ability of compounds to inhibit progression of cells from G1 into S-phase. […] The protocol is as follows: • (1) Grow human diploid fibroblasts (HDF-3) in 100 mm tissue culture dish to confluency. (2) Plate 6–7×10^3 cells/well in a 96 well plate in 100 μl of DMEM. […] Dilute compound in DMEM containing DMSO and add 100 μl to each well so that the DMSO conc. is 0.6–0.8% in 200 μl final volume. (4) Two h after addition of compound, add 20 μl of 100 μM Br dU (final conc. 10 μM) Make 100 μM solution in DMEM from 10 mM stock solution. (5) After 4 h, add 200 μl PBS to each well and remove the contents of the wells by inverting the plate and soaking on to the paper towel. Repeat the washing step three times, with 400 ul PBS each time. (6) Fix the cells and denature the DNA by adding 200 μl fixation/denaturation solution to each well for 30–40 min. (7) Remove the fixation/denaturation solution by tapping the plate on the paper towel and add 75 μl of anti BrdU peroxidase antibody to each well. (dilute the antibody to 0.1 U/mL from 15 U/mL stock in PBS containing 1% BSA, Fraction V). Incubate the plate O/N at 4° C. (8) Remove the antibody solution and wash wells four times with 400 μl of PBS. Let the wash solution stay for 3–4 min during each wash. (9) Drain the wells and add 100 μl of chemiluminiscence Elisa reagent (Prepare the reagent 15–20 min before use to bring it to rt by mixing 100 parts of reagent A with 1 part of reagent B). (10) Read the plate in a luminometer. Take 2–3 readings within 6–7 min. Perform the following controls: [table] Deoxybromouridine (BrdU), anti BrdU peroxidase antibodies, fixation/denaturation solution, chemiluminiscence reagent and BSA Fraction V, were obtained from Boehringer Mannheim. The 96-well white plate with clear bottom were purchased from Corning Costar Corporation. Dulbecco's Modified Eagle Medium containing high glucose, L-glutamine and pyridoxine HCl was obtained from GIBCO BRL.

[2] = system: HDF normal diploid fibroblast cells; experiment: FACS assay (cell death), HDF; conditions: 50% cell death, 72 h
Description: These assays allow determination of both cell death and changes in cell cycle profile in cells following treatment of the compound. The assay is performend as follows: • 1. Cells are incubated in DMEM to which 10% FCS has been added in a humidified incubator at 37° C. and 5% by volume of CO2 in air. The cells are innoculated in 6-well plates at a density of 0.5–5×10^5 cells per well. • 2. The test compound is added in serial dilutions 24–36 h after plating in 0.5% DMSO. The plates are then incubated a further 72 h in the presence of the compound. During this time, cells in control cultures undergo at least three cell divisions. • 3. After incubation, the media is collected and cells are harvested by trypsinization. The cells and media are pooled and pelleted by centrifugation. • 4. The cell pellet is fixed in a final volume of 3 mL of 50% ice cold MeOH and incubated for a minimum of 30 min at −20° C. • 5. The cells are pelleted by centrifugation and resuspended in 0.5 mL PBS containing 1%FCS, […] Propidium Iodide (PI) and 5 mg/mL RNase A and incubated 30 min at 37° C. in the dark. • 6. The samples are analysed by flow cytometry using the relative incorporation of PI as a measure of DNA content of each cell. The % Dead cells is recorded as % of events with less than 2N DNA. […] HDF are normal diploid fibroblast cells. RKO are colon adenocarcinoma cells and MES/SA are ovarian carcinoma cells.

[3] = system: HDF normal diploid fibroblast cells; experiment: MTT assay, HDF; conditions: 72 h
Description: Compounds are tested for their ability to inhibit cell proliferation and cell viability. The metabolic conversion of 3-(4,5-dimethylthiazol-2-yl)-2,5-diphenyltetrazolium bromide (MTT, Sigma #M2128) to a reduced form is a commonly used measure of cellular viability. Following is the procedure: Cells are maintained in 75 cm^2 tissue culture flasks until ready for use. The cells are grown and plated for the assay in Dulbecco's modified Eagle's media (DMEM) containing 10% fetal bovine serum. For example, the following cell lines can be used: a) human foreskin fibroblasts (HFF); b) HT29 (human colon carcinoma cell line); c) MDA-MB468 (human breast carcinoma cell line); d) RKO (human colon adenocarcinoma cell line); e) SW620 (human colon carcinoma cell line); f A549 (human lung carcinoma cell line); and g) MIA PACA (human pancreatic carcinoma cell line). Cells are maintained at 37° C. in 10% CO2, 90% humidified air. Cells are plated in 96-well tissue culture plates at the densities listed below. 100 μL of cell suspension is added to each well of the 96-well plate except the top row of the plate which contains no cells and serves as a reference for the spectrophotometer. [table] Cells are incubated overnight in DMEM containing 10% fetal bovine serum at 37° C. in 10% CO2, 90% humidified air prior to dosing. […] Compounds with solubilities of less than 30 μM are dosed at the highest soluble concentration. Stock solutions of compounds are made in 100% dimethyl sulfoxide (DMSO). Stock solutions are diluted in DMEM containing 100 μg/ml gentamicin and 0.3 to 0.6% DMSO at the twice the highest concentration to be placed on the cells. If compounds have been dissolved in DMSO the final concentration of DMSO on the cells is kept below 0.3%. Three-fold serial dilutions are performed on each compound to prepare 10 concentrations of the compound for dosing. 100 μl of diluted compound is added to the 100 μl of media currently on the dish. For each concentration of compound, 2–4 replicate wells are prepared. Cells are returned to incubator and allowed to proliferate in the presence of compound for 72 h before addition of MTT. […] After 4 h incubation the media, compound and MTT mixture is aspirated from the plates and 100 μl of 100% DMSO is added to each well in addition to 25 μl of Sorenson's Buffer (0.1M glycine, 0.1M NaCl, pH 10.5). Quantitation of metabolic reduction of MTT in each plate is performed by reading optical density at 570 nm wavelength on a Molecular Devices UVmax microplate reader. […] HDF are normal diploid fibroblast cells. RKO are colon adenocarcinoma cells and MES/SA are ovarian carcinoma cells.

[4] = system: RKO (human colon adenocarcinoma cell line); experiment: MTT assay, RKO; conditions: 72 h
Description: Compounds are tested for their ability to inhibit cell proliferation and cell viability. The metabolic conversion of 3-(4,5-dimethylthiazol-2-yl)-2,5-diphenyltetrazolium bromide (MTT, Sigma #M2128) to a reduced form is a commonly used measure of cellular viability. Following is the procedure: Cells are maintained in 75 cm^2 tissue culture flasks until ready for use. The cells are grown and plated for the assay in Dulbecco's modified Eagle's media (DMEM) containing 10% fetal bovine serum. For example, the following cell lines can be used: a) human foreskin fibroblasts (HFF); b) HT29 (human colon carcinoma cell line); c) MDA-MB468 (human breast carcinoma cell line); d) RKO (human colon adenocarcinoma cell line); e) SW620 (human colon carcinoma cell line); f A549 (human lung carcinoma cell line); and g) MIA PACA (human pancreatic carcinoma cell line). Cells are maintained at 37° C. in 10% CO2, 90% humidified air. Cells are plated in 96-well tissue culture plates at the densities listed below. 100 μL of cell suspension is added to each well of the 96-well plate except the top row of the plate which contains no cells and serves as a reference for the spectrophotometer. [table] Cells are incubated overnight in DMEM containing 10% fetal bovine serum at 37° C. in 10% CO2, 90% humidified air prior to dosing. […] Compounds with solubilities of less than 30 μM are dosed at the highest soluble concentration. Stock solutions of compounds are made in 100% dimethyl sulfoxide (DMSO). Stock solutions are diluted in DMEM containing 100 μg/ml gentamicin and 0.3 to 0.6% DMSO at the twice the highest concentration to be placed on the cells. If compounds have been dissolved in DMSO the final concentration of DMSO on the cells is kept below 0.3%. Three-fold serial dilutions are performed on each compound to prepare 10 concentrations of the compound for dosing. 100 μl of diluted compound is added to the 100 μl of media currently on the dish. […] Quantitation of metabolic reduction of MTT in each plate is performed by reading optical density at 570 nm wavelength on a Molecular Devices UVmax microplate reader. […]

| SMILES | IC50 ([1]; Homo sapiens, Fibroblast) [nM] | IC50 [2] [nM] | IC50 ([3]; Fibroblast) [nM] | IC50 ([4]; Homo sapiens) [nM] | IC50 [1] [nM] | IC50 [3] [nM] | IC50 [4] [nM] |
| --- | --- | --- | --- | --- | --- | --- | --- |
| COC(=O)c1ccc2c(c1)/C(=C/Nc1ccc(S(N)(=O)=O)cc1)C(=O)N2 [Example 27] | 1100 to 5000 | > 5000 | 1100 to 5000 | 1100 to 5000 |  |  |  |
| NS(=O)(=O)c1ccc(NN=C2C(=O)Nc3ccc(-c4cnco4)cc32)cc1 [Example 36] | 600 to 1000 | > 5000 | 1100 to 5000 | 600 to 1000 |  |  |  |
| O=C1Nc2ccc3ncsc3c2C1=CNc1ccc(S(=O)(=O)NCc2ccncc2)cc1 [Example 104, 4-[(7-Oxo-6,7-dihydro-1-thia-3,6-diaza-as-indacen-8-ylidenemethyl)amino]-N-pyridinyl-4-yl-methyl benzenesulfonamide] |  |  |  |  | 1100 to 5000 | 1100 to 5000 | 1100 to 5000 |

— patent US7105529B2, “Substituted oxindole derivatives as protein tyrosine and as protein serine/threonine kinase inhibitors and compositions and methods of treating chemotherapy and radiation therapy side effects” (SmithKline Beecham Corporation, priority 1997, dated 2006)
